Earlier results, collected in patent US9149490B2, “Acne treatment composition and methods for using” (Skinvisible Pharmaceuticals, Inc., priority 2006, dated 2015).

Details: in vivo

Poly(vinylpyrrolidone/1-eicosene) [PVPE]
dermal toxicity: no demonstrable dermal toxicity

Poly(vinylpyrrolidone/1-hexadecene) [PVPH]
dermal toxicity: no demonstrable dermal toxicity
